Results: ChEMBL document CHEMBL1201862, “PubChem BioAssay data set” (2004)
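48-hour exposure; five concentrations; linearly interpolated endpoints. GI50 = concentration required for 50% inhibition of growth.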 Activity calls are given as the source filed them. Rule as the data show it: active = GI50 up to about 1.1 µM and inactive = higher.

Tests used:
Test in all cases: NCI anticancer screen, dose series, 48 h
[1] = tested on: SF-295
[2] = tested on: A498
[3] = tested on: RPMI-8226
[4] = tested on: COLO 205
[5] = tested on: HOP-62
[6] = tested on: MOLT-4
[7] = tested on: Malme-3M
[8] = tested on: CAKI-1
[9] = tested on: RXF 393
[10] = tested on: KM12
[11] = tested on: SNB-19
[12] = tested on: NCI/ADR-RES
[13] = tested on: MCF7
[14] = tested on: K562
[15] = tested on: CCRF-CEM
[16] = tested on: SR
[17] = tested on: A549
[18] = tested on: OVCAR-4
[19] = tested on: MDA-MB-231
[20] = tested on: OVCAR-8
[21] = tested on: SN12C
[22] = tested on: EKVX
[23] = tested on: NCI-H522
[24] = tested on: UO-31
[25] = tested on: 786-0
[26] = tested on: ACHN
[27] = tested on: SF-268
[28] = tested on: IGROV-1
[29] = tested on: OVCAR-5
[30] = tested on: SW-620
[31] = tested on: HOP-92
[32] = tested on: SK-MEL-28
[33] = tested on: SNB-75
[34] = tested on: UACC-62
[35] = tested on: HCC 2998
[36] = tested on: Hs-578T
[37] = tested on: BT-549
[38] = tested on: HCT-116
[39] = tested on: NCI-H460
[40] = tested on: MDA-MB-435
[41] = tested on: T47D
[42] = tested on: TK-10
[43] = tested on: UACC-257
[44] = tested on: U-251
[45] = tested on: DU-145
[46] = tested on: HT-29
[47] = tested on: PC-3
[48] = tested on: NCI-H23
[49] = tested on: MDA-N
[50] = tested on: SK-MEL-2
[51] = tested on: SK-MEL-5
[52] = tested on: LOX IMVI
[53] = tested on: HL-60
[54] = tested on: M14
[55] = tested on: NCI-H226
[56] = tested on: SK-OV-3
[57] = tested on: HCT-15
[58] = tested on: SF-539
[59] = tested on: OVCAR-3

Compound: Cc1nnc(N)nc1C/C=C/C(Sc1ccc(Cl)cc1)c1ccccc1 (stereo not given)
- GI50 [1]: 1.91 µM (inactive)
- GI50 [2]: 3.73 µM (inactive)
- GI50 [3]: 1.43 µM (inactive)
- GI50 [4]: 4.5 µM (inactive)
- GI50 [5]: 5.28 µM (inactive)
- GI50 [6]: 2.56 µM (inactive)
- GI50 [7]: 3.06 µM (inactive)
- GI50 [8]: 5.7 µM (inactive)
- GI50 [9]: 4.45 µM (inactive)
- GI50 [10]: 3.56 µM (inactive)
- GI50 [11]: 3.05 µM (inactive)
- GI50 [12]: 4.69 µM (inactive)
- GI50 [13]: 3.95 µM (inactive)
- GI50 [14]: 3.44 µM (inactive)
- GI50 [15]: 0.235 µM (active)
- GI50 [16]: 3.35 µM (inactive)
- GI50 [17]: 2.82 µM (inactive)
- GI50 [18]: 4.94 µM (inactive)
- GI50 [19]: 6.76 µM (inactive)
- GI50 [20]: 5.04 µM (inactive)
- GI50 [21]: 4.41 µM (inactive)
- GI50 [22]: 3.64 µM (inactive)
- GI50 [23]: 1.81 µM (inactive)
- GI50 [24]: 1.52 µM (inactive)
- GI50 [25]: 3.27 µM (inactive)
- GI50 [26]: 4.3 µM (inactive)
- GI50 [27]: 2.4 µM (inactive)
- GI50 [28]: 1.82 µM (inactive)
- GI50 [29]: 4.89 µM (inactive)
- GI50 [30]: 4.2 µM (inactive)
- GI50 [31]: 5.68 µM (inactive)
- GI50 [32]: 6.78 µM (inactive)
- GI50 [33]: 4.45 µM (inactive)
- GI50 [34]: 2.74 µM (inactive)
- GI50 [35]: 9.38 µM (inactive)
- GI50 [36]: 3.27 µM (inactive)
- GI50 [37]: 2.13 µM (inactive)
- GI50 [38]: 3.59 µM (inactive)
- GI50 [39]: 3.41 µM (inactive)
- GI50 [40]: 3.15 µM (inactive)
- GI50 [41]: 11.2 µM (inactive)
- GI50 [42]: 7.14 µM (inactive)
- GI50 [43]: 4.22 µM (inactive)
- GI50 [44]: 2.91 µM (inactive)
- GI50 [45]: 8.02 µM (inactive)
- GI50 [46]: 7.01 µM (inactive)
- GI50 [47]: 3.01 µM (inactive)
- GI50 [48]: 3.17 µM (inactive)
- GI50 [49]: 6.21 µM (inactive)
- GI50 [50]: 5.66 µM (inactive)
- GI50 [51]: 4.35 µM (inactive)
- GI50 [52]: 2.26 µM (inactive)
- GI50 [53]: 2.87 µM (inactive)
- GI50 [54]: 4.73 µM (inactive)
- GI50 [55]: 1.86 µM (inactive)
- GI50 [56]: 3.86 µM (inactive)
- GI50 [57]: 3.25 µM

Compound: O=C1COCCN1C(=O)c1ccccc1Cl
- GI50 [1]: > 100 µM (inactive)
- GI50 [2]: > 100 µM (inactive)
- GI50 [3]: > 100 µM (inactive)
- GI50 [58]: > 100 µM (inactive)
- GI50 [5]: > 100 µM (inactive)
- GI50 [6]: > 10 µM (inactive)
- GI50 [7]: > 100 µM (inactive)
- GI50 [8]: > 100 µM (inactive)
- GI50 [9]: > 100 µM (inactive)
- GI50 [10]: > 100 µM (inactive)
- GI50 [11]: > 100 µM (inactive)
- GI50 [12]: > 100 µM (inactive)
- GI50 [13]: 34 µM (inactive)
- GI50 [14]: > 100 µM (inactive)
- GI50 [15]: > 100 µM (inactive)
- GI50 [16]: > 100 µM (inactive)
- GI50 [17]: > 100 µM (inactive)
- GI50 [18]: > 100 µM (inactive)
- GI50 [19]: > 100 µM (inactive)
- GI50 [20]: > 100 µM (inactive)
- GI50 [21]: > 100 µM (inactive)
- GI50 [22]: > 100 µM (inactive)
- GI50 [23]: > 100 µM (inactive)
- GI50 [24]: > 100 µM (inactive)
- GI50 [25]: > 100 µM (inactive)
- GI50 [26]: > 100 µM (inactive)
- GI50 [27]: > 100 µM (inactive)
- GI50 [28]: > 100 µM (inactive)
- GI50 [29]: > 100 µM (inactive)
- GI50 [30]: > 100 µM (inactive)
- GI50 [59]: > 100 µM (inactive)
- GI50 [31]: > 100 µM (inactive)
- GI50 [32]: > 100 µM (inactive)
- GI50 [33]: > 100 µM (inactive)
- GI50 [34]: > 100 µM (inactive)
- GI50 [35]: > 100 µM (inactive)
- GI50 [36]: > 100 µM (inactive)
- GI50 [37]: > 100 µM (inactive)
- GI50 [38]: > 100 µM (inactive)
- GI50 [39]: > 100 µM (inactive)
- GI50 [40]: > 100 µM (inactive)
- GI50 [41]: > 100 µM (inactive)
- GI50 [42]: > 100 µM (inactive)
- GI50 [43]: > 100 µM (inactive)
- GI50 [44]: > 100 µM (inactive)
- GI50 [45]: > 100 µM (inactive)
- GI50 [46]: > 100 µM (inactive)
- GI50 [47]: > 100 µM (inactive)
- GI50 [48]: > 100 µM (inactive)
- GI50 [49]: > 100 µM (inactive)
- GI50 [51]: > 100 µM (inactive)
- GI50 [52]: > 100 µM (inactive)
- GI50 [53]: > 100 µM (inactive)
- GI50 [54]: > 100 µM (inactive)
- GI50 [55]: > 100 µM (inactive)
- GI50 [57]: > 100 µM

Compound: CC(C)C(=O)CP(=O)(O)O
- GI50 [1]: > 100 µM (inactive)
- GI50 [2]: > 100 µM (inactive)
- GI50 [3]: > 100 µM (inactive)
- GI50 [4]: > 100 µM (inactive)
- GI50 [58]: > 100 µM (inactive)
- GI50 [5]: > 100 µM (inactive)
- GI50 [6]: > 100 µM (inactive)
- GI50 [7]: > 100 µM (inactive)
- GI50 [8]: > 100 µM (inactive)
- GI50 [9]: > 100 µM (inactive)
- GI50 [10]: > 100 µM (inactive)
- GI50 [11]: > 100 µM (inactive)
- GI50 [12]: > 100 µM (inactive)
- GI50 [13]: > 100 µM (inactive)
- GI50 [14]: > 100 µM (inactive)
- GI50 [15]: > 100 µM (inactive)
- GI50 [16]: > 100 µM (inactive)
- GI50 [17]: > 100 µM (inactive)
- GI50 [18]: > 100 µM (inactive)
- GI50 [19]: > 100 µM (inactive)
- GI50 [20]: > 100 µM (inactive)
- GI50 [21]: > 100 µM (inactive)
- GI50 [22]: 23.4 µM (inactive)
- GI50 [23]: > 100 µM (inactive)
- GI50 [25]: > 100 µM (inactive)
- GI50 [26]: > 100 µM (inactive)
- GI50 [27]: > 100 µM (inactive)
- GI50 [28]: > 100 µM (inactive)
- GI50 [29]: > 100 µM (inactive)
- GI50 [30]: > 100 µM (inactive)
- GI50 [59]: > 100 µM (inactive)
- GI50 [31]: > 100 µM (inactive)
- GI50 [32]: > 100 µM (inactive)
- GI50 [33]: > 100 µM (inactive)
- GI50 [34]: > 100 µM (inactive)
- GI50 [36]: > 100 µM (inactive)
- GI50 [37]: > 100 µM (inactive)
- GI50 [38]: > 100 µM (inactive)
- GI50 [39]: > 100 µM (inactive)
- GI50 [40]: > 100 µM (inactive)
- GI50 [41]: > 100 µM (inactive)
- GI50 [42]: > 100 µM (inactive)
- GI50 [43]: > 100 µM (inactive)
- GI50 [44]: > 100 µM (inactive)
- GI50 [45]: > 100 µM (inactive)
- GI50 [46]: > 100 µM (inactive)
- GI50 [47]: > 100 µM (inactive)
- GI50 [48]: > 100 µM (inactive)
- GI50 [49]: > 100 µM (inactive)
- GI50 [50]: > 100 µM (inactive)
- GI50 [51]: > 100 µM (inactive)
- GI50 [52]: > 100 µM (inactive)
- GI50 [53]: > 100 µM (inactive)
- GI50 [54]: > 100 µM (inactive)
- GI50 [55]: > 100 µM (inactive)
- GI50 [56]: > 100 µM (inactive)
- GI50 [57]: > 100 µM
